Data from PMC12040169 (PLOS Biology, 2025).

experiment: in vitro; details: human, hela cells, % viability

Compound | viability at 28.5 h, 10 µM [%]
O=C(CCS(=O)(=O)c1nc(-c2ccccc2)cc(C(F)(F)F)n1)Nc1ccc(Cl)cc1Cl [CBK268717] | 84.9
CS(=O)(=O)N1CCC(Nc2nc(-c3cccs3)nc3ccccc23)CC1 [CBK305987] | 87.3
COc1cccc(C(=O)N2CCN(C(=O)Nc3ccccc3Br)CC2)c1 [CBK154783] | 94.4
CC(C)C(=O)N1CCC[C@@H](Cn2nc(-c3cccs3)ccc2=O)C1 [CBK282317] | 96.5
CC(=O)c1ccc(OCc2nc(N)nc(Nc3ccccc3)n2)cc1 [CBK297155] | 83.1
COC1CCN(S(=O)(=O)c2cc(-n3cccn3)ccc2C)C1 (centres unmarked) [CBK306757] | 92.8
CC1CCN(Cc2c(O)ccc3occ(C(=O)c4ccccc4)c23)CC1 [CBK111319] | 89.8
CC[C@H](Cn1ncc2ccccc2c1=O)NC(=O)C(C)(C)C [CBK284304] | 90.2
COc1cc(CNC(C)(C)CO)c(Cl)cc1OC(C)C [CBK269542] | 89.9
COc1ccnc(N2CCc3c(ncn3C3CC3)C2)n1 [CBK304816] | 95.7
Cc1cccc(Nc2nc(N)nc(CSc3nccn3C)n2)c1 [CBK266105] | 98.7
Nc1nnc(Sc2nccc(C(F)(F)F)n2)s1 [CBK020023] | 99.5
Cc1c(NC(=O)CSc2nncn2C)ccc2nsnc12 [CBK269418] | 104
O=C(CSc1ccc(Cl)cc1)OCC(=O)c1ccccc1 [CBK264306] | 106
COC(=O)c1sccc1Oc1ccc([N+](=O)[O-])cn1 [CBK066826] | 115
COc1ccc(O)c(CN(C)CCN(C)C)c1 [CBK261854] | 89.4
CC(C)c1nccn1CC(=O)NCCOc1ccc(F)cc1 [CBK281597] | 89.6
CC(C)n1cc(C(=O)N2CCC(c3cc4ncccc4[nH]3)CC2)cn1 [CBK283392] | 95.6
O=C(c1ncoc1-c1ccc(F)cc1)N1CCN2CCCC2C1 (centres unmarked) [CBK282399] | 90.1
O=C(NCCN1CCOCC1)c1ccc(Nc2cncc(-c3ccc(O)cc3)n2)cc1 [CBK115692] | 77.1
CCOC(=O)c1cnc2ccccc2c1NCCN1CCOCC1 [CBK304328] | 101
Cc1ccc(C(=O)Nc2ccc3c(c2)OCO3)c(N2CCOCC2)n1 [CBK076377] | 92.9

Compound | viability at 28.5 h, 10 µM [%]
COc1nc(OC)nc(Sc2ccc(N)cc2)n1 [CBK019319] | 88.3
Nc1ncc(-c2cccs2)nc1-c1ccc(C(=O)O)cc1 [CBK064133] | 91.4
O=C(NCCCc1ccccc1)c1cccc(S(=O)(=O)N2CCCC2)c1 [CBK305024] | 96.1
CN(C)C(CNc1nccnc1-c1ccc(CO)cc1)c1cccnc1 (centres unmarked) [CBK038038] | 87.6
Cc1cc(Cl)c(OCCNCCO)c(Br)c1 [CBK265066G] | 122
COc1ccc(C2CNC(=O)C2)cc1OC1CCCC1 (centres unmarked) [CBK011603] | 86.5
Cc1c(F)cccc1CN1CCN(S(=O)(=O)c2ccc(C(=O)c3ccccc3)cc2)CC1 [CBK062929] | 102
CN(C)c1cccc(Nc2ccc(/C=C/c3ccccc3)cn2)c1 [CBK036984] | 98.7
Cc1n[nH]c(C)c1CCC(=O)N/N=C/c1ccc(Cl)cc1Cl [CBK262901] | 86.6
Clc1ccccc1-c1nccnc1OC(c1ccccc1)c1ccccc1 [CBK107002] | 92.9
Cc1nc2ccc(C(=O)N3CCN(C(=O)c4ccc(Cl)cc4)CC3)cc2nc1C [CBK296647] | 85
CC(=O)O[B-]1(OC(C)=O)N(c2ccc(S(N)(=O)=O)cc2)N=C(c2ccccc2)N=[N+]1c1ccccc1 [CBK260879] | 87.1
O=C(c1ccco1)N1CCN(c2ncc(-c3ccc(N4CCOCC4)cc3)n3ccnc23)CC1 [CBK091225] | 92.6
Cc1cccc(NCC(=O)N/N=C/c2cc3ccccc3nc2Cl)c1 [CBK261236] | 90
O=C(c1ccco1)N1CCN(c2ncnc3scc(-c4cccs4)c23)CC1 [CBK267208] | 110
Cc1cccc(-c2ocnc2C(=O)NCCCn2ccnc2)c1 [CBK282418] | 80.1
CC1(C)NC(=O)N(CC(O)CN(C2CCCCC2)C2CCCCC2)C1=O (centres unmarked) [CBK264578] | 101
O=C1NC(=O)C(CC(=O)N2CCC3(CC2)CC(=O)c2cc(Cl)ccc2O3)N1 (centres unmarked) [CBK156485] | 107
OCc1cccc(-c2cncc(NC3CCC(O)CC3)n2)c1 (centres unmarked) [CBK065448] | 102
COc1ccc([C@H]2CN(C(C)=O)[C@@H]3CCN(CC4CC4)C[C@H]23)cc1 [CBK285502] | 98.1
OCCN1CC2(CCN(CC3CCCO3)CC2)c2ccccc21 (centres unmarked) [CBK143959] | 90.8
Cc1ccccc1C1(O)CCN(CC(O)c2ccccc2)CC1 (centres unmarked) [CBK282491] | 83.7

Compound | viability at 28.5 h, 10 µM [%]
O=C(CN(c1cccc(Cl)c1)S(=O)(=O)c1ccccc1)NN=C1CCCCCC1 [CBK262519] | 89.9
CCOC(=O)Cc1csc(NS(=O)(=O)c2cc(Cl)c(Cl)s2)n1 [CBK000847] | 98
CC(C)(CN1CCCCC1)NC(=O)CCOc1cccc(F)c1 [CBK282060] | 87.2
Cc1cc(C)n2nc(S(N)(=O)=O)c(C#N)c2n1 [CBK025767] | 90.7
Cc1ccc(CNC(=O)CSc2nc(C)c(C)c(=O)[nH]2)cc1 [CBK287735] | 92.8
C=C(C)CN1CCN(Cc2c[nH]nc2C(C)(C)C)CC1 [CBK282827] | 92.6
Nc1nn2c(c1Cc1c(Cl)cccc1Cl)OCC2 [CBK088759] | 91.7
Cn1cc(-c2nc(C(=O)NCc3ccnc(N4CCCC4)c3)cs2)cn1 [CBK305666] | 92.9
COC(=O)c1sccc1NC(=O)c1ccc(F)cc1Cl [CBK270325] | 88.2
C[C@H](Nc1cncc(-c2cccs2)n1)c1ccccc1 [CBK065719] | 93.5
O=c1[nH]nc(-c2cccs2)n1-c1cccnc1 [CBK283854] | 101
COc1ccc([C@@]23CC[C@@H](NC(=O)Nc4cc(C)nc(C)c4)C[C@@H]2N(C)CC3)cc1OC [CBK045876] | 90.9
CC1(C)Cc2nc(N3CCOCC3)ncc2C(NC(=O)c2cn[nH]c2)C1 (centres unmarked) [CBK307409] | 106
NC(=O)CN1CCCN(c2cc(OCCc3c[nH]c4ccccc34)ncn2)CC1 [CBK091546] | 96.6
COc1ccc(C(=O)N2CCCN(Cc3ccc(C#N)cc3)CC2)cc1 [CBK305374] | 94.7
COc1cc(NC(=O)c2ccc3c(c2)C(=O)N(Cc2cccnc2)C3=O)c(C(=O)O)cc1OC [CBK266802] | 88.1
O=C(C[C@@H]1O[C@H](CNS(=O)(=O)c2ccc(Cl)cc2)[C@@H](O)[C@H]1O)N1CCCC1 [CBK288911] | 94.2
COc1ccc([C@@]23CC[C@@H](NC(=O)c4ccc5c(c4)OC(F)(F)O5)C[C@@H]2N(C)CC3)cc1OC [CBK076658T] | 108
Cc1nc(SCC(=O)c2cc(Cl)ccc2Cl)c2ccccc2n1 [CBK297543] | 100
CCc1nc2ccc(C(=O)N3CCN(C(C)=O)CC3)cn2c1N(C)Cc1ccc(Cl)cc1 [CBK146718] | 105
O=C(Nc1ccc(Cl)cc1)N1CCCC(CO)C1 (centres unmarked) [CBK156047] | 112
COCCOC(=O)N1CCC(C(=O)NC(c2ccccc2)c2ccsc2)CC1 (centres unmarked) [CBK060155] | 94.4

Compound | viability at 28.5 h, 10 µM [%]
S=C(NCCc1ccccc1)NCCn1cc(Cl)cn1 [CBK266912] | 103
Cc1cccc(Nc2ncc(Cc3ccccc3C)s2)n1 [CBK287849] | 94.8
Cc1ccc(/C=N/NC(=O)C(C)Oc2ccccc2Br)o1 (centres unmarked) [CBK262226] | 103
O=C(c1cccnc1)C1CCN(C(=O)Cc2ccc(F)cc2)CC1 [CBK283515] | 90.5
COc1ccc(C(C)C)cc1-c1cncc(N[C@@H](C)c2ccccc2)n1 [CBK065504] | 115
CC(C)(C)C1=CC2=NC3(CCCCCC3)[C@@H]3C[C@@H](O)[C@@H](O)[C@@H]3N2O1 [CBK303252] | 91.9
Cc1nonc1CC(=O)N1C2CCC1CC(c1ccc(F)cc1)C2 (centres unmarked) [CBK283739] | 89.1
O=C(Cn1ncn2c(cc3ccsc32)c1=O)N1CCCCCC1 [CBK284202] | 81.7
CCOc1ncccc1NC(=O)c1cnc2c(cnn2CC(C)C)c1 [CBK304288] | 83.3
CCc1cc(Br)ccc1S(=O)(=O)NCCC#N [CBK044760] | 91.9
Cc1nc(C)n(CC2CCCN(Cc3nc4ccccc4o3)C2)n1 (centres unmarked) [CBK305828] | 95.3
c1ccc(CCN2CCC(N3CCOCC3)CC2)cc1 [CBK261928] | 85.2
CC(C)CC(CC(C)C)OCC(=O)NCC1(c2ccc3ccccc3c2)CCC1 [CBK067404] | 109
CC(=O)Nc1ccc(/N=C/c2ccc(Cl)cc2)cc1 [CBK015166] | 92.3
COc1cc(-c2nc(C(C)=O)c(C)n2O)cc(OC)c1OC [CBK270083] | 95.6
O=C(c1ccc2c(c1)C(=O)N(c1ccncc1)C2=O)c1ccc2c(c1)C(=O)N(c1ccncc1)C2=O [CBK261194] | 88.5
COc1ccc2c3c(cc(Cl)cc13)CC(N)C2 (centres unmarked) [CBK016450C] | 84.2
CC1CC(Nc2ccccc2)c2ccccc2N1C(=O)CCCC(=O)O (centres unmarked) [CBK286960] | 89.3
O=C(NCC(O)c1ccc2ccccc2c1)c1cnc(-c2ccccc2)c(-c2ccncc2)c1 (centres unmarked) [CBK037438] | 91
COc1cc(OC)nc(C(NC(=O)C2CCN(C(=O)c3ccno3)CC2)c2ccc(Cl)cc2)n1 (centres unmarked) [CBK060169] | 115
COCCNC(=O)C1CCCCC1C(=O)O (centres unmarked) [CBK269135] | 108
CC(NC(=O)C1C=CCN1S(C)(=O)=O)c1ccc2c(c1)CCC2 (centres unmarked) [CBK282667] | 88.7

same assay, conditions: human, hela cells, % viability, bulk resorufin, single well

Compound | viability at 28.5 h, 10 µM [%]
Cc1noc(C)c1NC(=O)N1CCC2(CC1)OCc1cc(F)ccc1O2 [CBK060721] | 97.8
